Assays:
IMP-1 = IMP-1 (Serratia marcescens, UniProt P52699); experiment: biochemical; format: biochemical; conditions: CCF2-FA substrate, 2 hours at 25° C; read-out: IMP-1 IC50
Procedure: (§1) Enzyme Activity: Determination of IC50
(§2) The Class B enzyme activities were measured in the presence of the test inhibitor in a fluorescence assay against a commercially available substrate consisting of a cephalosporin core linking 7-hydroxycoumarin to fluorescein (CCF2-FA). […] In a 384-well microplate, the test inhibitor was incubated with the metallo-β-lactamase enzyme and the substrate for 2 hours at 25° C. […] The IC50 value was determined from semi-logarithmic plots of enzyme inhibition versus inhibitor concentration, with a curve generated using a 4-parameter fit.

NDM-1 = NDM-1 (Klebsiella pneumoniae, UniProt C7C422); experiment: biochemical; format: biochemical; conditions: CCF2-FA substrate, 2 hours at 25° C; read-out: NDM-1 IC50
Chain of NDM-1 (C7C422 whole entry, looked up, species assumed): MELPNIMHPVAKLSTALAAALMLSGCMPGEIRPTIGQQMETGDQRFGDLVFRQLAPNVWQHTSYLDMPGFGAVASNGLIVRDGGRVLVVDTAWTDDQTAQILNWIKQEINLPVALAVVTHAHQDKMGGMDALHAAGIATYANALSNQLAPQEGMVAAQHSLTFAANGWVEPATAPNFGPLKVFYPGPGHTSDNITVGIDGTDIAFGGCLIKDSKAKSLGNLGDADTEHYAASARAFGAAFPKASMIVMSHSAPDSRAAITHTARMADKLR
Procedure: as §1, §2

VIM-1 = VIM-1 (Pseudomonas aeruginosa (strain ATCC 15692 / DSM 22644 / CIP 104116 / JCM 14847 / LMG 12228 / 1C / PRS 101 / PAO1), UniProt A0A0F7KYQ8); experiment: biochemical; conditions: CCF2-FA substrate, 2 hours at 25° C
Procedure, shortened: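 Inhibitor was mixed with the metallo-β-lactamase and CCF2-FA. After 2 hours at 25° C, fluorescence of the coumarin–fluorescein cephalosporin substrate was read. IC50 was calculated with a 4-parameter fit.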

[1] = tested on: Serratia marcescens expressing IMP-1 (CL5741); format: cell-based; conditions: with imipenem 1 μg/ml, 95% inhibition of bacterial growth
Procedure, shortened: (§3)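 Colonies from overnight 35 °C blood-agar cultures were suspended in saline, diluted 1:100 into 1.1× CAMHB and exposed to test compound with or without imipenem at 1 μg/ml. After 22–24 h at 35 °C, absorbance was read to find the concentration restoring imipenem susceptibility.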

[2] = tested on: Klebsiella pneumoniae expressing VIM-1 (IHMA599644); format: cell-based; conditions: with imipenem 1 μg/ml, 95% inhibition of bacterial growth
Procedure, shortened: as §3

[3] = tested on: Escherichia coli expressing NDM-1 (CLB30005, CLB30016); format: cell-based; conditions: with imipenem 1 μg/ml, 95% inhibition of bacterial growth
Procedure, shortened: as §3

[4] = tested on: P. aeruginosa expressing IMP-1, efflux+ (MB9798); format: cell-based, Pseudomonas aeruginosa; conditions: for P. aeruginosa expressing IMP-1, efflux+ (MB9798) MITC95: imipenem at 2 μg/mL, in the presence of a class A, C, D serine β-lactamase inhibitor closely related to relebactam; for Efflux ratio: ratio MITC95 PA_9798/MITC95 PA_9799
From the text: (§4) The strain background is Pseudomonas aeruginosa PAO1.

[5] = tested on: P. aeruginosa expressing IMP-1, efflux− (MB9799); experiment: Efflux: concentration of MBL inhibitor which restores susceptibility to imipenem; format: cell-based, Pseudomonas aeruginosa; conditions: imipenem at 2 μg/mL, in the presence of a class A, C, D serine β-lactamase inhibitor closely related to relebactam
From the text: as §4

Chain of IMP-1 (P52699 whole entry, looked up, species assumed): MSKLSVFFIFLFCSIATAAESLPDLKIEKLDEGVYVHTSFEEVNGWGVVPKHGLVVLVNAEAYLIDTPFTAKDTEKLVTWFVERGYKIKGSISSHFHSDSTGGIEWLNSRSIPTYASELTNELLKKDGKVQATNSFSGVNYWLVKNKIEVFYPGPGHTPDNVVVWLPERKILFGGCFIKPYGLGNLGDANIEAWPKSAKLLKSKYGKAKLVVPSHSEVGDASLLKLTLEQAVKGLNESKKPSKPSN

| Structure (SMILES) | IC50 (IMP-1) [nM] | IC50 (NDM-1) [nM] | IC50 (VIM-1) [nM] | Serratia marcescens expressing IMP-1 (CL5741) MITC95 [1] [µM] | Klebsiella pneumoniae expressing VIM-1 (IHMA599644) MITC95 [2] [µM] | Escherichia coli expressing NDM-1 (CLB30016) MITC95 [3] [µM] | P. aeruginosa expressing IMP-1, efflux+ (MB9798) MITC95 [4] [µM] | Efflux ratio [4] | P. aeruginosa expressing IMP-1, efflux− (MB9799) MITC95 [5] [µM] | Serratia marcescens MITC95 ([1]; IMP-1 (CL5741)) [µM] | Klebsiella pneumoniae MITC95 ([2]; VIM-1 (IHMA599644)) [µM] | Escherichia coli MITC95 ([3]; NDM-1 (CLB30016)) [µM] |
| --- | --- | --- | --- | --- | --- | --- | --- | --- | --- | --- | --- | --- |
| NS(=O)(=O)c1c(S(=O)(=O)C2CNC2)ccc(-c2cccc3ncccc23)c1-c1nnn[nH]1.O=C(O)C(F)(F)F [Example 118, 3-((4-(quinolin-5-yl)-2-sulfamoyl-3-(1H-tetrazol-5-yl)phenyl)sulfonyl)azetidin-1-ium 2,2,2-trifluoroacetate] | 1.42 | 0.145 | 0.388 | 6.25 | 6.25 | 3.125 | 12.5 | 4.00 | 3.125 |  |  |  |
| NCCS(=O)(=O)c1ccc(-c2cccc3cn[nH]c23)c(-c2nnn[nH]2)c1S(N)(=O)=O.O=C(O)C(F)(F)F [Example 173, 2-((4-(1H-indazol-7-yl)-2-sulfamoyl-3-(1H-tetrazol-5-yl)phenyl)sulfonyl)ethanaminium 2,2,2-trifluoroacetate] | 0.16 | 0.338 | 0.264 | 0.8906 | 0.8906 | 0.25 | 0.8906 | 2.00 | 0.4453 |  |  |  |
| CS(=O)(=O)c1ccc(-c2ccc(NS(=O)(=O)C3CC3)cc2)c(-c2nn[nH]n2)c1S(N)(=O)=O [Example 241, 4′-(Cyclopropanesulfonamido)-4-(methylsulfonyl)-2-(2H-tetrazol-5-yl)-[1,1′-biphenyl]-3-sulfonamide] | 0.0444 | 0.658 | 0.0868 | 3.125 | 12.5 | 6.25 | 12.5 | 8.00 | 1.563 |  |  |  |
| NCCS(=O)(=O)c1ccc(-c2cccc3cc(N)ncc23)c(-c2nn[nH]n2)c1S(N)(=O)=O [Example 73, 6-(2-aminoethylsulfonyl)-3-(3-aminoisoquinolin-8-yl)-2-(2H-tetrazol-5-yl)benzenesulfonamide] | 0.214 | 0.109 | 0.241 | 3.125 | 3.125 | 0.7813 | 1.563 | 1.00 | 1.563 |  |  |  |
| NS(=O)(=O)c1c(SC2CNC2)ccc(-c2ccc(NS(=O)(=O)C3CC3)cc2)c1-c1nn[nH]n1 [Example 243, 4-(Azetidin-3-ylthio)-4′-(cyclopropanesulfonamido)-2-(2H-tetrazol-5-yl)-[1,1′-biphenyl]-3-sulfonamide] | 11.3 | 5.88 | 9.86 | 3.125 | 12.5 | 3.125 | 100 | 127.99 | 0.7813 |  |  |  |
| Cc1ccc(-c2ccc(S(=O)(=O)C3CNC3)c(S(N)(=O)=O)c2-c2nn[nH]n2)c2nc(N)[nH]c12 [Example 15, 3-(2-Amino-7-methyl-1H-benzo[d]imidazol-4-yl)-6-(azetidin-3-ylsulfonyl)-2-(2H-tetrazol-5-yl)benzenesulfonamide] | 0.613 | 0.0897 | 0.206 | 0.3906 | 0.7813 | 0.3906 | 0.3906 | 1.00 | 0.3906 |  |  |  |
| Cn1ncc2cc(-c3ccc(S(=O)(=O)CCN)c(S(N)(=O)=O)c3-c3nnn[nH]3)ccc21.O=C(O)C(F)(F)F [Example 160, 2-((4-(1-methyl-1H-indazol-5-yl)-2-sulfamoyl-3-(1H-tetrazol-5-yl)phenyl)sulfonyl)ethanaminium 2,2,2-trifluoroacetate] | 0.568 | 1.02 | 0.375 | 3.125 | 6.25 | 1.563 | 12.5 | 8.00 | 1.563 |  |  |  |
| NS(=O)(=O)c1c(S(=O)(=O)C2CCNCC2)ccc([C@H]2CC[C@H](N)CC2)c1-c1nnn[nH]1 [Example 207, 3-((1r,4r)-4-aminocyclohexyl)-6-(piperidin-4-ylsulfonyl)-2-(1H-tetrazol-5-yl) benzenesulfonamide] | 24.6 | 15.9 | 0.71 | 3.125 | 3.125 | 2.344 | 3.125 | 2.00 | 1.563 |  |  |  |
| COc1ccc(Cc2cc3c(-c4ccc(S(=O)(=O)C5CNC5)c(S(N)(=O)=O)c4-c4nnn[nH]4)cccc3[nH]2)cc1 [Example 231, 6-(azetidin-3-ylsulfonyl)-3-(2-(4-methoxybenzyl)-1H-indol-4-yl)-2-(1H-tetrazol-5-yl)benzenesulfonamide] | 0.717 | 0.102 | 0.558 | 6.25 | 12.5 | 6.25 | 25 | 8.00 | 3.125 |  |  |  |
| Nc1nc2c(-c3ccc(S(=O)(=O)[C@@H]4CCNC4)c(S(N)(=O)=O)c3-c3nn[nH]n3)cccc2o1 [Example 189, 3-(2-aminobenzo[d]oxazol-4-yl)-6-((R)-pyrrolidin-3-ylsulfonyl)-2-(2H-tetrazol-5-yl)benzenesulfonamide] | 0.332 | 0.219 | 0.419 | 1.563 | 1.563 | 1.563 | 0.7813 | 1.00 | 0.7813 |  |  |  |
| NC[C@H](N)CS(=O)(=O)c1ccc(-c2ccc(N)nc2)c(-c2nn[nH]n2)c1S(N)(=O)=O [Example 372, (S)-3-(6-aminopyridin-3-yl)-6-((2,3-diaminopropyl)sulfonyl)-2-(2H-tetrazol-5-yl) benzenesulfonamide] | 1.43 | 1.17 | 0.992 |  |  |  | 3.125 | 2.00 | 1.563 | 1.563 | 3.125 | 0.7813 |
| NCCS(=O)(=O)c1ccc(-c2ccnc(N)c2)c(-c2nnn[nH]2)c1S(N)(=O)=O.O=C(O)C(F)(F)F [Example 141, 2-((4-(2-aminopyridin-4-yl)-2-sulfamoyl-3-(1H-tetrazol-5-yl)phenyl)sulfonyl)ethanaminium 2,2,2-trifluoroacetate] | 4.89 | 4.32 | 1.01 | 0.8906 | 1.781 | 0.25 | 6.25 | 7.02 | 0.8906 |  |  |  |
